Results from patent publication US20240376085A1 (Janssen Pharmaceutica NV, priority 2021, published 2024).

Legend:
[1] = target: T1, IL-17A : IL-17RA binding (Homo sapiens, UniProt Q16552, K93Q); test: IL-17A(FLAG-tagged):IL-17RA(His-tagged) binding disruption Eu-HTRF assay, Protocol 1; settings: FLAG-IL-17A 2.5 nM at 2x final concentration; average if tested more than once
T1 construct: Name: IL-17A-Flag
Summary of the method: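 IC50 came from a one-site competition fit of the acceptor/donor (665/620 nm) HTRF ratio. His-tagged IL-17RA, Eu-anti-FLAG and D2-anti-His were added after a 1 h rt compound preincubation with FLAG-tagged IL-17A dimer in PBS/0.01% Triton X-100, followed by 2 h at rt before reading.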

[2] = system: IL-17A-induced G-CSF production in human normal keratinocyte (NHK); test: NHK assay: IL-17A-induced G-CSF production in normal human keratinocytes; type: cell-based; settings: Homo sapiens, Keratinocyte, 24 h, IL-17A 5 ng/mL, average if tested more than once
Summary of the method: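 IC50 derives from G-CSF in supernatants, quantified by HTRF from a standard curve, with CellTiter-Glo viability compared to DMSO control. Before a 24 h, 37°C culture of normal human keratinocytes at 3000–4000 cells/well, compound dilutions were preincubated 1 h at rt with human IL-17A (5 ng/mL final), with 0.2% DMSO and 5% FBS.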

T1 sequence (Q16552 with tags, fused parts or gaps K93Q): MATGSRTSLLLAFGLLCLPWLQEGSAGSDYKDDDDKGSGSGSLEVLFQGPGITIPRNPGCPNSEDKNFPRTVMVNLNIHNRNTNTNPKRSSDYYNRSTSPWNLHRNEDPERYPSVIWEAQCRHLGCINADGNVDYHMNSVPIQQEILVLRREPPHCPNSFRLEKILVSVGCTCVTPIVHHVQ

| SMILES | IC50 [1] [nM] | IC50 [2] [nM] |
| --- | --- | --- |
| C[C@@H](NC(=O)CCC(F)(F)F)c1ccc2nc([C@@H](NC(=O)c3cn(CC4CC(F)(F)C4)nn3)C3CCC(F)(F)CC3)[nH]c2c1 [Example 65, 1-((3,3-Difluorocyclobutyl)methyl)-N—((S)-(4,4-difluorocyclohexyl)(6-((R)-1-(4,4,4-trifluorobutanamido)ethyl)-1H-benzo[d]imidazol-2-yl)methyl)-1H-1,2,3-triazole-4-carboxamide] | > 100 | > 100 |
| C[C@@H](NC(=O)CCC(F)(F)F)c1ccc2nc([C@@H](NC(=O)c3cnnn3CC3CC(F)(F)C3)C3CCC(F)(F)CC3)[nH]c2c1 [Example 66, 1-((3,3-Difluorocyclobutyl)methyl)-N—((S)-(4,4-difluorocyclohexyl)(6-((R)-1-(4,4,4-trifluorobutanamido)ethyl)-1H-benzo[d]imidazol-2-yl)methyl)-1H-1,2,3-triazole-5-carboxamide] | > 100 | 50 to 100 |
| C[C@@H](NC(=O)CCC(F)(F)F)c1ccc2nc([C@@H](NC(=O)c3cnn(CCC(C)(C)C)n3)C3CCC(F)(F)CC3)[nH]c2c1 [Example 67, N—((S)-(4,4-Difluorocyclohexyl)(6-((R)-1-(4,4,4-trifluorobutanamido)ethyl)-1H-benzo[d]imidazol-2-yl)methyl)-2-(3,3-dimethylbutyl)-2H-1,2,3-triazole-4-carboxamide] | > 100 | > 100 |
| C[C@@H](NC(=O)CCC(F)(F)F)c1ccc2nc([C@@H](NC(=O)c3cnnn3CCC(C)(C)C)C3CCC(F)(F)CC3)[nH]c2c1 [Example 68, N—((S)-(4,4-Difluorocyclohexyl)(6-((R)-1-(4,4,4-trifluorobutanamido)ethyl)-1H-benzo[d]imidazol-2-yl)methyl)-1-(3,3-dimethylbutyl)-1H-1,2,3-triazole-5-carboxamide] | > 100 | > 100 |
| C[C@@H](NC(=O)CCC(F)(F)F)c1ccc2nc([C@@H](NC(=O)c3cnn(CCC(F)F)n3)C3CCC(F)(F)CC3)[nH]c2c1 [Example 73, N—((S)-(4,4-Difluorocyclohexyl)(6-((R)-1-(4,4,4-trifluorobutanamido)ethyl)-1H-benzo[d]imidazol-2-yl)methyl)-2-(3,3-difluoropropyl)-2H-1,2,3-triazole-4-carboxamide] | > 100 | > 100 |
| C[C@@H](NC(=O)CCC(F)(F)F)c1ccc2nc([C@@H](NC(=O)c3cnnn3CCC(F)F)C3CCC(F)(F)CC3)[nH]c2c1 [Example 74, N—((S)-(4,4-Difluorocyclohexyl)(6-((R)-1-(4,4,4-trifluorobutanamido)ethyl)-1H-benzo[d]imidazol-2-yl)methyl)-1-(3,3-difluoropropyl)-1H-1,2,3-triazole-5-carboxamide] | > 100 | > 100 |
| C[C@@H](NC(=O)CCC(F)(F)F)c1ccc2nc([C@@H](NC(=O)c3cn(CC(F)(F)F)nc3C3CC3)C3CCC(F)(F)CC3)[nH]c2c1 [Example 75, 3-Cyclopropyl-N—((S)-(4,4-difluorocyclohexyl)(6-((R)-1-(4,4,4-trifluorobutanamido)ethyl)-1H-benzo[d]imidazol-2-yl)methyl)-1-(2,2,2-trifluoroethyl)-1H-pyrazole-4-carboxamide] | > 100 | > 100 |
| [2H]C([2H])([2H])C([2H])([2H])n1nccc1C(=O)N[C@@H](COC(C)(C)C(F)(F)F)c1nc2ccc([C@H](NC(=O)CC3CC(F)(F)C3)C3CC3)cc2[nH]1 [Example 76, N—((R)-1-(6-((R)-Cyclopropyl(2-(3,3-difluorocyclobutyl)acetamido)methyl)-1H-benzo[d]imidazol-2-yl)-2-((1,1,1-trifluoro-2-methylpropan-2-yl)oxy)ethyl)-1-(ethyl-d5)-1H-pyrazole-5-carboxamide] | < 50 | < 50 |
| Cc1nocc1C(=O)N[C@@H](COC(C)(C)C(F)(F)F)c1nc2ccc([C@H](NC(=O)CC3CC(F)(F)C3)C3CC3)cc2[nH]1 [Example 77, N—((R)-1-(6-((R)-Cyclopropyl(2-(3,3-difluorocyclobutyl)acetamido)methyl)-1H-benzo[d]imidazol-2-yl)-2-((1,1,1-trifluoro-2-methylpropan-2-yl)oxy)ethyl)-3-methylisoxazole-4-carboxamide] | 50 to 100 | 50 to 100 |
| C[C@@H](NC(=O)CCC(F)(F)F)c1ccc2[nH]c([C@@H](NC(=O)c3cnn(CC45CC(C#N)(C4)C5)n3)C3CCC(F)(F)CC3)nc2c1 [Example 78, 2-((3-Cyanobicyclo[1.1.1]pentan-1-yl)methyl)-N—((S)-(4,4-difluorocyclohexyl)(5-((R)-1-(4,4,4-trifluorobutanamido)ethyl)-1H-benzo[d]imidazol-2-yl)methyl)-2H-1,2,3-triazole-4-carboxamide] | > 100 | > 100 |
| C[C@@H](NC(=O)CCC(F)(F)F)c1ccc2[nH]c([C@@H](NC(=O)c3cn(CC45CC(C#N)(C4)C5)nn3)C3CCC(F)(F)CC3)nc2c1 [Example 79, 1-((3-Cyanobicyclo[1.1.1]pentan-1-yl)methyl)-N—((S)-(4,4-difluorocyclohexyl)(5-((R)-1-(4,4,4-trifluorobutanamido)ethyl)-1H-benzo[d]imidazol-2-yl)methyl)-1H-1,2,3-triazole-4-carboxamide] | > 100 | > 100 |
| C[C@@H](NC(=O)CCC(F)(F)F)c1ccc2[nH]c([C@@H](NC(=O)c3cnnn3CC3CC3(F)F)C3CCC(F)(F)CC3)nc2c1 (stereo partly drawn) [Example 80, N—((S)-(4,4-Difluorocyclohexyl)(5-((R)-1-(4,4,4-trifluorobutanamido)ethyl)-1H-benzo[d]imidazol-2-yl)methyl)-1-((2,2-difluorocyclopropyl)methyl)-1H-1,2,3-triazole-5-carboxamide] | > 100 | 50 to 100 |
| C[C@@H](NC(=O)CCC(F)(F)F)c1ccc2[nH]c([C@@H](NC(=O)c3cnn(CC4CC4(F)F)n3)C3CCC(F)(F)CC3)nc2c1 (stereo partly drawn) [Example 81, N—((S)-(4,4-Difluorocyclohexyl)(5-((R)-1-(4,4,4-trifluorobutanamido)ethyl)-1H-benzo[d]imidazol-2-yl)methyl)-2-((2,2-difluorocyclopropyl)methyl)-2H-1,2,3-triazole-4-carboxamide] | > 100 | > 100 |
| C[C@@H](NC(=O)CCC(F)(F)F)c1ccc2[nH]c([C@@H](NC(=O)c3cnnn3CC3CC(F)(F)C3(F)F)C3CCC(F)(F)CC3)nc2c1 (stereo partly drawn) [Example 82, N—((S)-(4,4-Difluorocyclohexyl)(5-((R)-1-(4,4,4-trifluorobutanamido)ethyl)-1H-benzo[d]imidazol-2-yl)methyl)-1-((2,2,3,3-tetrafluorocyclobutyl)methyl)-1H-1,2,3-triazole-5-carboxamide] | > 100 | > 100 |
| C[C@@H](NC(=O)CCC(F)(F)F)c1ccc2[nH]c([C@@H](NC(=O)c3cnn(CC4CC(F)(F)C4(F)F)n3)C3CCC(F)(F)CC3)nc2c1 (stereo partly drawn) [Example 83, N—((S)-(4,4-Difluorocyclohexyl)(5-((R)-1-(4,4,4-trifluorobutanamido)ethyl)-1H-benzo[d]imidazol-2-yl)methyl)-2-((2,2,3,3-tetrafluorocyclobutyl)methyl)-2H-1,2,3-triazole-4-carboxamide] | > 100 | > 100 |
| C[C@@H](NC(=O)CCC(F)(F)F)c1ccc2[nH]c([C@@H](NC(=O)c3cn(CC4CC(F)(F)C4(F)F)nn3)C3CCC(F)(F)CC3)nc2c1 (stereo partly drawn) [Example 84, N—((S)-(4,4-Difluorocyclohexyl)(5-((R)-1-(4,4,4-trifluorobutanamido)ethyl)-1H-benzo[d]imidazol-2-yl)methyl)-1-((2,2,3,3-tetrafluorocyclobutyl)methyl)-1H-1,2,3-triazole-4-carboxamide] | > 100 | > 100 |
| CC(C(F)F)n1cc(C(=O)N[C@H](c2nc3cc([C@@H](C)NC(=O)CCC(F)(F)F)ccc3[nH]2)C2CCC(F)(F)CC2)nn1 (stereo partly drawn) [Example 85, N—((S)-(4,4-Difluorocyclohexyl)(5-((R)-1-(4,4,4-trifluorobutanamido)ethyl)-1H-benzo[d]imidazol-2-yl)methyl)-1-(1,1-difluoropropan-2-yl)-1H-1,2,3-triazole-4-carboxamide] | > 100 | > 100 |
| C[C@@H](NC(=O)CCC(F)(F)F)c1ccc2[nH]c([C@@H](NC(=O)c3cnnn3CC3CCC3(F)F)C3CCC(F)(F)CC3)nc2c1 (stereo partly drawn) [Example 86, 1-((2,2-Difluorocyclobutyl)methyl)-N—((S)-(4,4-difluorocyclohexyl)(5-((R)-1-(4,4,4-trifluorobutanamido)ethyl)-1H-benzo[d]imidazol-2-yl)methyl)-1H-1,2,3-triazole-5-carboxamide] | > 100 | > 100 |
| C[C@@H](NC(=O)CCC(F)(F)F)c1ccc2[nH]c([C@@H](NC(=O)c3cnn(CC4CCC4(F)F)n3)C3CCC(F)(F)CC3)nc2c1 (stereo partly drawn) [Example 87, 2-((2,2-Difluorocyclobutyl)methyl)-N—((S)-(4,4-difluorocyclohexyl)(5-((R)-1-(4,4,4-trifluorobutanamido)ethyl)-1H-benzo[d]imidazol-2-yl)methyl)-2H-1,2,3-triazole-4-carboxamide] | > 100 | > 100 |
| C[C@@H](NC(=O)CCC(F)(F)F)c1ccc2[nH]c([C@@H](NC(=O)c3cn(CC4CCC4)nc3C#N)C3CCC(F)(F)CC3)nc2c1 [Example 88, 3-Cyano-1-(cyclobutylmethyl)-N—((S)-(4,4-difluorocyclohexyl)(5-((R)-1-(4,4,4-trifluorobutanamido)ethyl)-1H-benzo[d]imidazol-2-yl)methyl)-1H-pyrazole-4-carboxamide] | > 100 | > 100 |
